Results taken from PubChem BioAssay (NCI).
Where “and” joins values, the source holds several entries; their conditions need not be identical. Equal entries are not always repeated.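 A five-concentration, 48-hour dose response in 96-well plates underlies each endpoint, interpolated linearly between surrounding concentrations. Abbreviation: GI50, concentration required for 50% inhibition of growth. TGI is the concentration that stops growth completely.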

Experiments:
Test in all cases: growth of human tumour cells (NCI), 48 h
[1] = system: HOP-62 NSCLC
[2] = system: K-562 leukemia
[3] = system: HCT-116 colon
[4] = system: IGROV1 ovarian
[5] = system: NCI/ADR-RES ovarian
[6] = system: DU-145 prostate
[7] = system: HS 578T breast
[8] = system: HT29 colon
[9] = system: SF-539 CNS

| Structure (SMILES) | TGI [1] [µM] | TGI [2] [µM] | TGI [3] [µM] | TGI [4] [µM] | TGI [5] [µM] | TGI [6] [µM] | TGI [7] [µM] | TGI [8] [µM] | TGI [9] [µM] | GI50 [1] | GI50 [3] [µM] | GI50 [4] | GI50 [5] [µM] |
| --- | --- | --- | --- | --- | --- | --- | --- | --- | --- | --- | --- | --- | --- |
| N#Cc1c(-c2ccccc2)cc(-c2ccc(Cl)cc2)[nH]c1=S | > 100 | > 100 | > 100 | 89.8 | > 100 | > 100 | > 100 | > 100 | – | – | – | – | – |
| CN(C)CCC(=O)/C=C\c1ccccc1 | > 100 | 36.8 | 28.7 | 62 | – | – | – | 39.2 | 30.7 | – | – | – | – |
| O=c1[nH]c(=O)n(C2CC(O)C(CO)O2)cc1OCc1ccccc1 (centres undefined) | > 100 | > 100 | > 100 | > 100 | > 100 | > 100 | > 100 | > 100 | – | – | – | – | – |
| CCOC(=O)C#Cc1ccccc1 | 46.3 | 8.91 | 17.7 | – | > 100 | > 100 | 82.3 | 21.4 | 19.3 | – | – | – | – |
| CO[C@@H]1O[C@H](C(=O)c2ccccc2)[C@H]2OC(C)(C)O[C@@H]12 | > 100 | > 100 | > 100 | > 100 | > 100 | > 100 | > 100 | – | > 100 | – | – | – | – |
| CC1(C)[C@H]2CC[C@@]13C(=O)N1C(=O)O[C@@H]([C@H]1Cl)C(Cl)(COCc1ccccc1)C(=O)OCCO[C@H]3C2 (some centres undefined) | > 100 | > 100 | > 100 | > 100 | > 100 | – | > 100 | > 100 | > 100 | – | – | – | – |
| COc1ccc(-c2cc(-c3ccccc3)[nH]c(=S)c2C#N)cc1 | 24.2 | > 100 | > 100 | > 100 | > 100 | > 100 | > 100 | > 100 | – | – | – | – | – |
| C[C@H]1SC(c2ccc(Cl)cc2Cl)N(NC(=O)c2ccncc2)C1=O (some centres undefined) | 94.3 | > 100 | 60.4 | > 100 | > 100 | > 100 | > 100 | > 100 | – | – | – | – | – |
| Cc1cnc2c(c1)C(=O)C1=C(C2=O)C2OC(=O)CC2OC1(C)C (centres undefined) | 2.58 | – | 0.399 | 0.424 | – | 3.02 | 0.693 | 1.25 | 0.575 | – | – | – | – |
| CCC(C(=O)C(=O)OC)P1(=O)OC(C)(C)CN1C(C)(C)C (centres undefined) | > 100 | > 100 | > 100 | > 100 | > 100 | > 100 | – | > 100 | > 100 | – | – | – | – |
| CCOC(=O)/C(O)=C1\C(=O)N(C)C(=O)C1c1cccc(OC)c1 (centres undefined) | > 100 | > 100 | > 100 | > 100 | > 100 | – | – | > 100 | > 100 | – | – | – | – |
| CC(=O)OC1CCC2C3CCc4c(C)ccc(OS(=O)(=O)c5ccccc5)c4C3CCC12C (centres undefined) | > 100 | > 100 | 48.3 | > 100 | – | > 100 | – | > 100 | – | – | – | – | – |
| C1=C\SS/C=C\SS/1 | > 100 | 85.2 | > 100 | 62.5 | > 100 | > 100 | > 100 | 35.6 | – | – | – | – | – |
| CC(C(=O)O)C(C)(O)C(=O)O (centres undefined) | – | > 100 | > 100 | > 100 | > 100 | > 100 | > 100 | > 100 | > 100 | – | – | – | – |
| COc1ccc(CC2COc3cc(O)cc(O)c3C2=O)cc1O (centres undefined) | > 100 | > 100 | – | > 100 | 8.78 | 68.1 | > 100 | 27.5 | 10.1 | – | – | – | – |
| O=c1cc(N2CCCC2)[nH]c(=O)n1-c1ccccc1 | > 100 | > 100 | > 100 | > 100 | > 100 | > 100 | – | > 100 | > 100 | – | – | – | – |
| OCc1ccc2c(c1)CC1(Cc3ccc(/C=N/O)cc3C1)C2 (centres undefined) | > 76.7 | – | > 100 | > 100 | 37 | > 100 | > 26.4 | 11.4 | 11.3 | – | – | – | – |
| CCCSc1nc(-c2ccc(OC)cc2)c(C#N)c(=O)n1C1OC(COC(C)=O)C(OC(C)=O)C(OC(C)=O)C1OC(C)=O (centres undefined) | > 100 | > 100 | > 100 | > 100 | – | – | – | > 100 | > 100 | > 100 µM and 30.1 µM | > 100 | > 100 µM and 43.4 µM | – |
| CC(=O)c1cnc2oc3ccc(O)cc3c2c1-c1ccccc1 | – | > 100 | > 100 | 45 | 75 | > 100 | > 100 | > 100 | 46.2 | – | – | 5.04 µM | 19.6 |
